From patent EP2540163A1, “Nematocide N-cyclopropyl-sulfonylamide derivatives” (Bayer CropScience AG, priority 2011, dated 2013) come the findings set out here.

For orientation: chromatographic logP means lipophilicity estimated from chromatographic retention. Low values mean a more hydrophilic compound, high ones a more lipophilic compound.

System in the first series: not listed separately
Nature of the series: logP by HPLC on reversed-phase column (C 18), EEC Directive 79/831 Annex V.A8, Method A (0.1% aqueous phosphoric acid / acetonitrile, 43°C). Type of series: physicochemical. As to conditions: c18 reversed-phase hplc; LogP method A: HPLC reversed-phase C 18, 43°C, 0.1% aqueous phosphoric acid / acetonitrile. Here is the method:
Calibration was carried out using unbranched alkan-2-ones (having 3 to 16 carbon atoms) with known logP values (determination of the logP values by the retention times using linear interpolation between two successive alkanones).
`COCCn1c(C)c(C(=O)N(C2CC2)S(=O)(=O)c2ccc(Cl)c(C(F)(F)F)c2)sc1=O` [compound 619] came in with a chromatographic logP of 2.01.
The compound `COc1nn(C)cc1C(=O)N(C1CC1)S(=O)(=O)c1ccccc1Cl` [compound 211] gave a chromatographic logP of 1.94.
In turn, `CCc1onc(C(C)C)c1C(=O)N(C1CC1)S(=O)(=O)c1cccc(Cl)c1` [compound 589] had a chromatographic logP of 4.18.
Still for that read-out and setting: with `CC(C)c1c(C(=O)N(C2CC2)S(=O)(=O)c2ccc(Cl)c(Cl)c2)sc(=O)n1C1CC1` [compound 634] the figure was 3.01; with `Cc1nn(C)c(C)c1C(=O)N(C1CC1)S(=O)(=O)c1ccccc1Cl` [compound 215], 2.17; with `Cc1nc(C(F)(F)F)c(C(=O)N(C2CC2)S(=O)(=O)c2ccccc2Cl)s1` [compound 59], 3.2.
Turning to `Cc1c(C(=O)N(C2CC2)S(=O)(=O)c2ccc(Cl)cc2Cl)sc(=O)n1Cc1ccccc1` [compound 627], the chromatographic logP worked out at 4.03.
Same read-out and setting: in the case of `Cc1cc(C(=O)N(C2CC2)S(=O)(=O)c2ccccc2Cl)nc(Cl)n1` [compound 654] it was 2.93.
Still for that read-out and setting: with `Cc1c(C(=O)N(C2CC2)S(=O)(=O)c2ccc(Cl)c(C(F)(F)F)c2)sc(=O)n1Cc1ccccc1` [compound 625] the figure was 3.01; with `O=C(c1cccnc1Cl)N(C1CC1)S(=O)(=O)c1ccccc1Cl` [compound 644], 2.58.
The same measure, in the same setting: with `Cc1cc(C)c(C(=O)N(C2CC2)S(=O)(=O)c2ccc(Cl)c(Cl)c2Cl)c(Cl)n1` [compound 651] the figure was 4.16; with `COCCn1c(C)c(C(=O)N(C2CC2)S(=O)(=O)c2ccc(Cl)cc2Cl)sc1=O` [compound 620], 2.01.
`Cc1nn(C)c(F)c1C(=O)N(C1CC1)S(=O)(=O)c1ccc(Cl)c(Cl)c1Cl` [compound 212]: the chromatographic logP was found to be 3.35.
On the same count and under the same terms, in the case of `Cc1nn(C)c(F)c1C(=O)N(C1CC1)S(=O)(=O)c1cccc(Cl)c1Cl` [compound 210] it was 2.77; in that of `CCc1onc(C(C)C)c1C(=O)N(C1CC1)S(=O)(=O)c1ccc(Cl)c(Cl)c1` [compound 595], 4.77.
As for `Cn1cc(C(=O)N(C2CC2)S(=O)(=O)c2ccccc2Cl)c(C(F)(F)F)n1` [compound 200], the chromatographic logP was determined as 2.71.
`CCc1onc(C(C)C)c1C(=O)N(C1CC1)S(=O)(=O)c1ccc(Cl)c(C(F)(F)F)c1` [compound 594] returned a chromatographic logP of 4.82.
Same read-out and setting: in the case of `Cc1nn(C)c(F)c1C(=O)N(C1CC1)S(=O)(=O)c1ccc(Cl)c(Cl)c1` [compound 178] it was 3.35.
The same measure, in the same setting: in the case of `Cc1nn(C)c(C)c1C(=O)N(C1CC1)S(=O)(=O)c1ccc(Cl)c(Cl)c1` [compound 412] it was 3.21.
`CC(C)c1c(C(=O)N(C2CC2)S(=O)(=O)c2cccc(Cl)c2)sc(=O)n1C1CC1` [compound 617] returned a chromatographic logP of 2.01.
Same read-out and setting: with `Cc1nn(C)c(Oc2cccc(Cl)c2)c1C(=O)N(C1CC1)S(=O)(=O)c1ccc(Cl)c(C(F)(F)F)c1` [compound 404] the figure was 4.56.
`Cc1c(C(=O)N(C2CC2)S(=O)(=O)c2ccc(Cl)c(Cl)c2)sc(=O)n1Cc1ccccc1` [compound 626] registered a chromatographic logP of 3.01.
`Cc1ccsc1C(=O)N(C1CC1)S(=O)(=O)c1ccccc1Cl` [compound 14] yielded a chromatographic logP of 3.12.
On the same count and under the same terms, in the case of `Cc1c(C(=O)N(C2CC2)S(=O)(=O)c2cccc(Cl)c2)sc(=O)n1Cc1ccccc1` [compound 613] it was 2.01; in that of `O=C(c1cccnc1)N(C1CC1)S(=O)(=O)c1ccc(Cl)c(Cl)c1` [compound 639], 2.91.
Compound `Cc1nc(C(=O)N(C2CC2)S(=O)(=O)c2ccc(Cl)c(C(F)(F)F)c2)cs1` [compound 69] returned a chromatographic logP of 3.63.
On the same count and under the same terms, in the case of `COCCn1c(C)c(C(=O)N(C2CC2)S(=O)(=O)c2cccc(Cl)c2)sc1=O` [compound 609] it was 2.01; in that of `Cc1nn(C)c(F)c1C(=O)N(C1CC1)S(=O)(=O)c1cccnc1Cl` [compound 446], 1.96; in that of `CCc1onc(C(C)C)c1C(=O)N(C1CC1)S(=O)(=O)c1ccc(Cl)cc1Cl` [compound 596], 4.41.
As for `Cc1nc(C(=O)N(C2CC2)S(=O)(=O)c2ccc(Cl)cc2Cl)cs1` [compound 71], the chromatographic logP was found to be 3.03.
On the same count and under the same terms, with `Cn1nc(C(=O)N(C2CC2)S(=O)(=O)c2ccccc2Cl)n(C)c1=O` [compound 608] the figure was 1.97.
Still for that read-out and setting: in the case of `Cc1occc1C(=O)N(C1CC1)S(=O)(=O)c1ccccc1Cl` [compound 4] it was 2.77.
With `O=C(c1cccnc1Cl)N(C1CC1)S(=O)(=O)c1cccc(Cl)c1` [compound 643], the chromatographic logP came out at 2.91.
Still for that read-out and setting: with `Cn1cc(C(=O)N(C2CC2)S(=O)(=O)c2ccccc2Cl)c(I)n1` [compound 214] the figure was 2.31.
For `Cc1c(C(=O)N(C2CC2)S(=O)(=O)c2ccc(Cl)c(Cl)c2)sc(=O)n1C` [compound 623], the chromatographic logP is 2.01.
As to `CCc1c(C(=O)N(C2CC2)S(=O)(=O)c2ccc(Cl)c(Cl)c2)sc(=O)n1C1CC1` [compound 630], the chromatographic logP is 4.08.
Still for that read-out and setting: with `CCOC(=O)c1[nH]c(C)c(C(=O)N(C2CC2)S(=O)(=O)c2ccc(Cl)c(C(F)(F)F)c2)c1C` [compound 31] the figure was 4.08; with `Cc1nn(C)c(Oc2cccc(Cl)c2)c1C(=O)N(C1CC1)S(=O)(=O)c1cccc(Cl)c1` [compound 399], 3.94; with `O=C(c1cccnc1)N(C1CC1)S(=O)(=O)c1cccc(Cl)c1` [compound 642], 2.3.
Same read-out and setting: in the case of `O=C(c1cc(Br)c(Br)o1)N(C1CC1)S(=O)(=O)c1ccccc1Cl` [compound 1] it was 3.58; in that of `CCOC(=O)c1[nH]c(C)c(C(=O)N(C2CC2)S(=O)(=O)c2ccc(Cl)cc2Cl)c1C` [compound 32], 3.63; in that of `Cc1nn(C)c(F)c1C(=O)N(C1CC1)S(=O)(=O)c1cnc(Cl)c(Br)c1` [compound 447], 3.08.
On to `Cc1ncc(C(=O)N(C2CC2)S(=O)(=O)c2ccc(Cl)c(Cl)c2)s1` [compound 63], for which the chromatographic logP stood at 3.33.
In turn, `Cc1ncc(C(=O)N(C2CC2)S(=O)(=O)c2ccc(Cl)c(C(F)(F)F)c2)s1` [compound 62] displayed a chromatographic logP of 3.46.
On the same count and under the same terms, in the case of `CC(C)c1c(C(=O)N(C2CC2)S(=O)(=O)c2ccc(Cl)cc2Cl)sc(=O)n1C1CC1` [compound 635] it was 2.01; in that of `Cc1nn(C)c(F)c1C(=O)N(C1CC1)S(=O)(=O)c1c(Cl)cccc1Cl` [compound 218], 2.52; in that of `O=C(c1cccnc1)N(C1CC1)S(=O)(=O)c1ccc(Cl)c(C(F)(F)F)c1` [compound 638], 3.1.
Compound `Cn1nc(C(F)(F)F)c(C(=O)N(C2CC2)S(=O)(=O)c2ccccc2Cl)c1Cl` [compound 208] returned a chromatographic logP of 3.27.
The same measure, in the same setting: with `Cc1nn(C)c(F)c1C(=O)N(C1CC1)S(=O)(=O)c1cc(Cl)sc1Cl` [compound 435] the figure was 3.16; with `Cc1ncc(C(=O)N(C2CC2)S(=O)(=O)c2ccc(Cl)cc2Cl)s1` [compound 64], 2.91; with `Cc1ncc(C(=O)N(C2CC2)S(=O)(=O)c2cccc(Cl)c2)s1` [compound 60], 2.8.
The same measure, in the same setting: with `Cc1nn(C)c(Cl)c1C(=O)N(C1CC1)S(=O)(=O)c1ccc(Cl)c(Cl)c1` [compound 407] the figure was 3.63.
On the same count and under the same terms, with `Cc1nn(C)c(F)c1C(=O)N(C1CC1)S(=O)(=O)c1cccc(Cl)c1` [compound 176] the figure was 2.82.
Take `CCc1c(C(=O)N(C2CC2)S(=O)(=O)c2ccc(Cl)cc2Cl)sc(=O)n1C1CC1` [compound 631]: the chromatographic logP is 2.01.
On the same count and under the same terms, in the case of `Cc1c(C(=O)N(C2CC2)S(=O)(=O)c2ccc(Cl)c(C(F)(F)F)c2)sc(=O)n1C` [compound 622] it was 2.01; in that of `Cc1occc1C(=O)N(C1CC1)S(=O)(=O)c1cccc(Cl)c1` [compound 3], 3.27.

Still in this series, the particulars now being: c18 reversed-phase hplc; LogP method A: HPLC, 43°C, 0.1% aqueous phosphoric acid, acetonitrile, gradient 10% to 90% acetonitrile.
Compound `Cc1nn(C)c(F)c1C(=O)N(C1(c2ccc(Cl)cc2)CC1)S(=O)(=O)c1cccc(Cl)c1Cl` [compound 669] came in with a chromatographic logP of 4.44.
Compound `Cc1nn(C)c(F)c1C(=O)N(C1CC1c1ccccc1)S(=O)(=O)c1ccccc1Cl` (stereo not drawn) [compound 676] came in with a chromatographic logP of 3.27.

In another series the test system is Meloidogyne incognita.
Test: not given
As to conditions: 336 h, 20 ppm. It counts as in vivo. Here is the method: Meloidogyne incognita - test
To produce a suitable preparation of active compound, 1 part by weight of active compound is mixed with the stated amount of solvent, and the concentrate is diluted with emulsifier-containing water to the desired concentration.
Vessels are filled with sand, a solution of the active ingredient, a suspension containing eggs and larvae of Meloidogyne incognita and salad seeds. The salad seeds germinate and the seedlings grow. Galls develop in the roots.
After 14 days the nematicidal activity is determined on the basis of the percentage of gall formation. 100% means that no galls were found; 0% means that the number of galls found on the roots of the treated plants was equal to that in untreated control plants.
For the compound `Cc1nc(C(=O)N(C2CC2)S(=O)(=O)c2ccc(Cl)c(C(F)(F)F)c2)cs1` [compound 69], the “nematicidal activity determined on the basis of the percentage of gall formation” value is 80%.
On the same count and under the same terms, in the case of `O=C(c1cccnc1)N(C1CC1)S(=O)(=O)c1ccc(Cl)c(C(F)(F)F)c1` [compound 638] it was 100%.
